“Also recorded” adds a separate entry of the source.
How the values were obtained:
Type in all cases: in vivo
HPV45 pseudovirions = experiment: Cutaneous HPV challenge with HPV45 pseudovirions (luciferase reporter); details: BALB/c mice vaccinated s.c. three times, luminescence 72 hrs post-challenge
Experimental: (§1) Immunization of mice. All animal experimental work was done in accordance with Johns Hopkins Medical Institutions Animal Care and Use Committee guidelines. BALB/c and C57BL/6 (NCI, Frederick, Md.) wild type or MyD88 (D. Golenbock, UMass Medical Center, […], Mass.), CD40, or MHCII deficient mice (Jackson Laboratories, Bar Harbor, Me.) were used. Mice aged 4-6 wks were immunized with P25-P2C-HPV vaccine or various controls. All vaccine and control peptides were dissolved in phosphate-buffered saline (PBS). Mice received two booster immunizations at 4 wks and 8 wks after priming immunization in the same fashion and dose. (i) subcutaneous (s.c.): Each mouse was administered 20 nmols of vaccine in a total volume of 100 μL or an equivalent amount of several control preparations at the base of the tail. (ii) intranasal (i.n.): Anesthesia induction was accomplished within 3 to 5 mins using a chamber filled with 2.5% isoflurane (Baxter, Deerfield, Ill.). While anesthetized, each mouse was administered 20 nmols of lipopeptide in a total volume of 50 μL of vaccine or an equivalent amount of several control preparations via controlled micropipetting into the nares.
(§2) Cutaneous HPV challenge. […] Equal areas encompassing the site of virus inoculation were analyzed using Living Image 2.20 software (Xenogen), and background was determined by challenge with non-infectious HPV pseudovirions lacking L2.

HPV16 pseudovirions = experiment: Cutaneous HPV challenge with HPV16 pseudovirions (luciferase reporter); details: BALB/c mice vaccinated s.c. three times, bioluminescence 3 days post-challenge
Experimental: as §1, §2

HPV16 L2 17-36 = HPV16 L2 17-36 peptide ELISA of sera from immunized mice; details: mice vaccinated s.c. or i.n.; compared with saline controls
Experimental: as §1
Collection and quantification of HPV specific antibody responses. […] Presence of serum antibodies against HPV16 was assessed by enzyme-linked immunosorbent assays (ELISA). […]

Row | Substance | protection from cutaneous challenge with HPV45 pseudovirions (HPV45 pseudovirions) | protection from cutaneous challenge with HPV16 pseudovirions (HPV16 pseudovirions) | L2-specific antibody (immune) response by ELISA (HPV16 L2 17-36)
1 | HPV16 L1 VLP: virus-like particles of HPV16 major capsid protein L1, control vaccine | did not protect | protected mice from cutaneous challenge | –
2 | QLYKTCKQAGTCPPDIIPKV (listed as Human papillomavirus) [HPV16 L2 17-36 peptide] | did not protect | failed to protect the mice | immune responses similar to saline controls; also recorded: failed to induce an L2-specific antibody response
